#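 Results reflect a 48-hour exposure of cells in 96-well plates to compound at five concentrations. GI50 marks 50% less growth. TGI denotes the concentration required for complete inhibition of growth.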
# How the values were obtained:
# Assay in all cases: NCI-60 cell line screen, 48 h
# 786-0 renal = test system: 786-0 renal
# A498 renal = test system: A498 renal
# A549 NSCLC = test system: A549 NSCLC
# ACHN renal = test system: ACHN renal
# BT-549 breast = test system: BT-549 breast
# CAKI-1 renal = test system: CAKI-1 renal
# CCRF-CEM leukemia = test system: CCRF-CEM leukemia
# COLO 205 colon = test system: COLO 205 colon
# DU-145 prostate = test system: DU-145 prostate
# EKVX NSCLC = test system: EKVX NSCLC
# HCT-116 colon = test system: HCT-116 colon
# HCT-15 colon = test system: HCT-15 colon
# HL-60(TB) leukemia = test system: HL-60(TB) leukemia
# HOP-62 NSCLC = test system: HOP-62 NSCLC
# HOP-92 NSCLC = test system: HOP-92 NSCLC
# HS 578T breast = test system: HS 578T breast
# HT29 colon = test system: HT29 colon
# IGROV1 ovarian = test system: IGROV1 ovarian
# K-562 leukemia = test system: K-562 leukemia
# KM12 colon = test system: KM12 colon
# LOX IMVI melanoma = test system: LOX IMVI melanoma
# M14 melanoma = test system: M14 melanoma
# MALME-3M melanoma = test system: MALME-3M melanoma
# MCF7 breast = test system: MCF7 breast
# MDA-MB-231 breast = test system: MDA-MB-231 breast
# MDA-MB-435 = test system: MDA-MB-435
# MOLT-4 leukemia = test system: MOLT-4 leukemia
# NCI-H23 lung = test system: NCI-H23 lung
# NCI-H460 lung = test system: NCI-H460 lung
# NCI-H522 lung = test system: NCI-H522 lung
# NCI/ADR-RES ovarian = test system: NCI/ADR-RES ovarian
# OVCAR-3 ovarian = test system: OVCAR-3 ovarian
# OVCAR-4 ovarian = test system: OVCAR-4 ovarian
# OVCAR-8 ovarian = test system: OVCAR-8 ovarian
# PC-3 prostate = test system: PC-3 prostate
# RPMI-8226 leukemia = test system: RPMI-8226 leukemia
# RXF 393 renal = test system: RXF 393 renal
# SF-268 CNS = test system: SF-268 CNS
# SF-295 CNS = test system: SF-295 CNS
# SF-539 CNS = test system: SF-539 CNS
# SK-MEL-2 melanoma = test system: SK-MEL-2 melanoma
# SK-MEL-28 melanoma = test system: SK-MEL-28 melanoma
# SK-MEL-5 melanoma = test system: SK-MEL-5 melanoma
# SK-OV-3 ovarian = test system: SK-OV-3 ovarian
# SN12C renal = test system: SN12C renal
# SNB-19 CNS = test system: SNB-19 CNS
# SNB-75 CNS = test system: SNB-75 CNS
# SW-620 colon = test system: SW-620 colon
# T-47D breast = test system: T-47D breast
# TK-10 renal = test system: TK-10 renal
# U251 CNS = test system: U251 CNS
# UACC-257 melanoma = test system: UACC-257 melanoma
# UACC-62 melanoma = test system: UACC-62 melanoma
# UO-31 renal = test system: UO-31 renal
# NCI-H226 lung = test system: NCI-H226 lung
# OVCAR-5 ovarian = test system: OVCAR-5 ovarian
structure (smiles),measurement,setting,value
O=C1C=Cc2cscc21,TGI,786-0 renal,31.4 µM
same,TGI,A498 renal,> 100 µM
same,TGI,A549 NSCLC,> 100 µM
same,TGI,ACHN renal,> 100 µM
same,TGI,BT-549 breast,> 100 µM
same,TGI,CAKI-1 renal,67 µM
same,TGI,CCRF-CEM leukemia,52.6 µM
same,TGI,COLO 205 colon,> 100 µM
same,TGI,DU-145 prostate,> 100 µM
same,TGI,EKVX NSCLC,> 100 µM
same,TGI,HCT-116 colon,29.3 µM
same,TGI,HCT-15 colon,66.9 µM
same,TGI,HL-60(TB) leukemia,> 100 µM
same,TGI,HOP-62 NSCLC,> 100 µM
same,TGI,HOP-92 NSCLC,> 100 µM
same,TGI,HS 578T breast,> 100 µM
same,TGI,HT29 colon,> 100 µM
same,TGI,IGROV1 ovarian,> 100 µM
same,TGI,K-562 leukemia,> 100 µM
same,TGI,KM12 colon,> 100 µM
same,TGI,LOX IMVI melanoma,> 100 µM
same,TGI,M14 melanoma,84.5 µM
same,TGI,MALME-3M melanoma,63.7 µM
same,TGI,MCF7 breast,68.1 µM
same,TGI,MDA-MB-231 breast,80.6 µM
same,TGI,MDA-MB-435,> 100 µM
same,TGI,MOLT-4 leukemia,37.5 µM
same,TGI,NCI-H23 lung,> 100 µM
same,TGI,NCI-H460 lung,> 100 µM
same,TGI,NCI-H522 lung,42.5 µM
same,TGI,NCI/ADR-RES ovarian,> 100 µM
same,TGI,OVCAR-3 ovarian,47.7 µM
same,TGI,OVCAR-4 ovarian,> 100 µM
same,TGI,OVCAR-8 ovarian,> 100 µM
same,TGI,PC-3 prostate,> 100 µM
same,TGI,RPMI-8226 leukemia,> 100 µM
same,TGI,RXF 393 renal,32.8 µM
same,TGI,SF-268 CNS,> 100 µM
same,TGI,SF-295 CNS,> 100 µM
same,TGI,SF-539 CNS,> 100 µM
same,TGI,SK-MEL-2 melanoma,> 100 µM
same,TGI,SK-MEL-28 melanoma,> 100 µM
same,TGI,SK-MEL-5 melanoma,> 100 µM
same,TGI,SK-OV-3 ovarian,> 100 µM
same,TGI,SN12C renal,96.8 µM
same,TGI,SNB-19 CNS,> 100 µM
same,TGI,SNB-75 CNS,> 100 µM
same,TGI,SW-620 colon,> 100 µM
same,TGI,T-47D breast,81.5 µM
same,TGI,TK-10 renal,> 100 µM
same,TGI,U251 CNS,> 100 µM
same,TGI,UACC-257 melanoma,> 100 µM
same,TGI,UACC-62 melanoma,> 100 µM
same,TGI,UO-31 renal,85.8 µM
CCOC(=O)c1cc(NC(=O)c2cc(NC(=O)c3cc(NC(=O)c4c(-c5ccccc5)noc4C)cn3C)cn2C)cn1C,GI50,786-0 renal,> 100 µM
same,TGI,786-0 renal,> 100 µM
same,GI50,A498 renal,> 100 µM
same,TGI,A498 renal,> 100 µM
same,GI50,ACHN renal,> 100 µM
same,TGI,ACHN renal,> 100 µM
same,GI50,BT-549 breast,4.37 µM
same,TGI,BT-549 breast,59.5 µM
same,GI50,CAKI-1 renal,> 100 µM
same,TGI,CAKI-1 renal,> 100 µM
same,GI50,COLO 205 colon,> 100 µM
same,TGI,COLO 205 colon,> 100 µM
same,GI50,DU-145 prostate,16.9 µM
same,TGI,DU-145 prostate,> 100 µM
same,GI50,HCT-15 colon,> 100 µM
same,TGI,HCT-15 colon,> 100 µM
same,GI50,HL-60(TB) leukemia,10.6 µM
same,TGI,HL-60(TB) leukemia,> 100 µM
same,GI50,HOP-92 NSCLC,0.241 µM
same,TGI,HOP-92 NSCLC,4.36 µM
same,GI50,HS 578T breast,> 100 µM
same,TGI,HS 578T breast,> 100 µM
same,GI50,HT29 colon,> 100 µM
same,TGI,HT29 colon,> 100 µM
same,GI50,IGROV1 ovarian,> 100 µM
same,TGI,IGROV1 ovarian,> 100 µM
same,GI50,K-562 leukemia,9.3 µM
same,TGI,K-562 leukemia,> 100 µM
same,GI50,KM12 colon,> 100 µM
same,TGI,KM12 colon,> 100 µM
same,GI50,LOX IMVI melanoma,> 100 µM
same,TGI,LOX IMVI melanoma,> 100 µM
same,GI50,M14 melanoma,47.1 µM
same,TGI,M14 melanoma,> 100 µM
same,GI50,MALME-3M melanoma,91.2 µM
same,TGI,MALME-3M melanoma,> 100 µM
same,GI50,MCF7 breast,> 100 µM
same,TGI,MCF7 breast,> 100 µM
same,GI50,MDA-MB-231 breast,35 µM
same,TGI,MDA-MB-231 breast,> 100 µM
same,GI50,MDA-MB-435,> 100 µM
same,TGI,MDA-MB-435,> 100 µM
same,GI50,MOLT-4 leukemia,8.97 µM
same,TGI,MOLT-4 leukemia,> 100 µM
same,GI50,NCI-H226 lung,60.3 µM
same,TGI,NCI-H226 lung,> 100 µM
same,GI50,NCI-H23 lung,> 100 µM
same,TGI,NCI-H23 lung,> 100 µM
same,GI50,NCI-H460 lung,> 100 µM
same,TGI,NCI-H460 lung,> 100 µM
same,GI50,NCI-H522 lung,> 100 µM
same,TGI,NCI-H522 lung,> 100 µM
same,GI50,NCI/ADR-RES ovarian,> 100 µM
same,TGI,NCI/ADR-RES ovarian,> 100 µM
same,GI50,OVCAR-3 ovarian,47.9 µM
same,TGI,OVCAR-3 ovarian,> 100 µM
same,GI50,OVCAR-4 ovarian,> 100 µM
same,TGI,OVCAR-4 ovarian,> 100 µM
same,GI50,OVCAR-5 ovarian,> 100 µM
same,TGI,OVCAR-5 ovarian,> 100 µM
same,GI50,PC-3 prostate,19.2 µM
same,TGI,PC-3 prostate,> 100 µM
same,GI50,RXF 393 renal,> 100 µM
same,TGI,RXF 393 renal,> 100 µM
same,GI50,SF-268 CNS,> 100 µM
same,TGI,SF-268 CNS,> 100 µM
same,GI50,SF-295 CNS,> 100 µM
same,TGI,SF-295 CNS,> 100 µM
same,GI50,SK-MEL-2 melanoma,> 100 µM
same,TGI,SK-MEL-2 melanoma,> 100 µM
same,GI50,SK-MEL-28 melanoma,> 100 µM
same,TGI,SK-MEL-28 melanoma,> 100 µM
same,GI50,SK-MEL-5 melanoma,> 100 µM
same,TGI,SK-MEL-5 melanoma,> 100 µM
same,GI50,SK-OV-3 ovarian,> 100 µM
same,TGI,SK-OV-3 ovarian,> 100 µM
same,GI50,SN12C renal,73.4 µM
same,TGI,SN12C renal,> 100 µM
same,GI50,SNB-19 CNS,> 100 µM
same,TGI,SNB-19 CNS,> 100 µM
same,GI50,SNB-75 CNS,> 100 µM
same,TGI,SNB-75 CNS,> 100 µM
same,GI50,SW-620 colon,> 100 µM
same,TGI,SW-620 colon,> 100 µM
same,GI50,T-47D breast,> 100 µM
same,TGI,T-47D breast,> 100 µM
same,GI50,TK-10 renal,> 100 µM
same,TGI,TK-10 renal,> 100 µM
same,GI50,U251 CNS,> 100 µM
same,TGI,U251 CNS,> 100 µM
same,GI50,UACC-62 melanoma,44.4 µM
same,TGI,UACC-62 melanoma,> 100 µM
same,GI50,UO-31 renal,> 100 µM
same,TGI,UO-31 renal,> 100 µM
